Blank lines part the entries; values can stand above or below the compound they belong to.
Experiments:
EGFR WT = molecular target: T1, EGFR WT (Homo sapiens, UniProt P00533); test: EGFR (Y1068) phosphorylation in NCI-H838 cells, MSD kit; format: cell-based; conditions: pEGFR (Y1068), 4 h then hEGF stimulation
T1 construct: which expresses wild type EGFR protein; endogenous in cells; host or cells: NCI-H838 (ATCC CRL-5844)

HER2 WT Amplification = molecular target: T2, HER2 WT Amplification (Homo sapiens, UniProt P04626); test: HER2 (Y1248) phosphorylation in BT474 cells, MSD kit; format: cell-based; conditions: pHER2 (Y1248), 4 h
T2 construct: The cell line expressed phosphorylated HER2 protein and its proliferation depended on the amplified gene; endogenous in cells; host or cells: BT474 (ATCC HTB-20)
T2 sequence (P04626 23-1255): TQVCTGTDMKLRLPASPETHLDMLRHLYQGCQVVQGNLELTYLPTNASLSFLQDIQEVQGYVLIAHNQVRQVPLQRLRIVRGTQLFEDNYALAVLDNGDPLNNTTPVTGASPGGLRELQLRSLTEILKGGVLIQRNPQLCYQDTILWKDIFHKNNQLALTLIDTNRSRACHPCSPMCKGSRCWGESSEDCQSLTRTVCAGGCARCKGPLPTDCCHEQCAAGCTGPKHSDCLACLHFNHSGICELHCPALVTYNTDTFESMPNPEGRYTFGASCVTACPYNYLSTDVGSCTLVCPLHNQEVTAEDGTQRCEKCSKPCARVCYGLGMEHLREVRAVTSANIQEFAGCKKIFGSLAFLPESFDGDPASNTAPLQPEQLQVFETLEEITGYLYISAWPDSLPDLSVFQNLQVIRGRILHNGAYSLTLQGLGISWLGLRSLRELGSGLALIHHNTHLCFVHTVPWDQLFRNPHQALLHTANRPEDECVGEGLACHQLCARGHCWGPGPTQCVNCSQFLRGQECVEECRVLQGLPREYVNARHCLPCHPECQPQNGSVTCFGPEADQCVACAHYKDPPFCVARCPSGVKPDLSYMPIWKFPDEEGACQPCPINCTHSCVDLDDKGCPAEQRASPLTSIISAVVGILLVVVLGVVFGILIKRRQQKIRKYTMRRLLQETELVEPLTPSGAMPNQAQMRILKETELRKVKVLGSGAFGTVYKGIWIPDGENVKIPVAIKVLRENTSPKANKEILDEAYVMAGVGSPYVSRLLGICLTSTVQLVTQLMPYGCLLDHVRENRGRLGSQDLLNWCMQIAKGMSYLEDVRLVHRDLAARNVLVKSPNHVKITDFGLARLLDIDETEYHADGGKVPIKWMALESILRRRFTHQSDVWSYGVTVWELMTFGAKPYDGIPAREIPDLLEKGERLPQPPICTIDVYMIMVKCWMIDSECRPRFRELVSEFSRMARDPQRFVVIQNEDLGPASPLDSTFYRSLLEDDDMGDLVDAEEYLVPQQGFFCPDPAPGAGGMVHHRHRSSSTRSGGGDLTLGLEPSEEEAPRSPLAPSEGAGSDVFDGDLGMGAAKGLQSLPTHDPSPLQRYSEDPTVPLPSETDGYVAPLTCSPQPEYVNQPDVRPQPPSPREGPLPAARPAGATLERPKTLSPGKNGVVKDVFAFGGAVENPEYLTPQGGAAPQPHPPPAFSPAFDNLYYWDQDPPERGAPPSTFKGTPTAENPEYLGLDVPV
Procedure: The plates were incubated for 4 h at 37° C. with 5% CO2 and then the HER2 (Y1248) phosphorylation level of cells in each well were measured with MSD Kit (Phospho-ErbB2 ([…]) Assay Whole Cell Lysate Kit: Cat #[…]-3). The assay is a electrochemiluminescent method (MESO SCALE DISCOVERY) for determining both phosphorylated and total HER2 of cells with an MSD SECTOR® Imager and then the ratio of p-HER2/total HER2 can be generated by the machine.

[1] = Blood brain barrier penetration assay in rats (short oral absorption model with blood, plasma and brain binding); format: in vivo; conditions: male, Han Wistar, Table 5, rat
Procedure: In vitro blood, plasma and brain binding assay was carried out with equilibrium dialysis device. […] At the end of incubation, a 50 μL aliquot from the receiver side and a 5 μL from the donor chamber were taken. The 5 μL sample was further diluted with 45 μL of blank blood, plasma or brain homogenate. Paired samples were matrix-matched with either buffer or blank matrix, and mixed for 2 min, and then precipitated with 150 μL cold acetonitrile with 100 ng/mL tolbutamide as internal standard. After centrifuging at 4000 rpm for 20 min, supernatant was diluted with 0.1% formic acid aqueous solution and analyzed for LC/MS/MS (API 4000, Applied Biosystems, Foster City). […] D is dilution factor. […] A Short oral absorption (SOA) model is an in-vivo screening model to identify brain penetration of a compound. Six male Han Wistar rats purchased from Beijing Vital River were orally dosed with the compound. […] Brain tissue was harvested and homogenized in 3× volume of 100 mM phosphate buffered saline (pH7.4). All samples were stored at ˜−70° C. prior to LC/MS/MS analysis. Standards were prepared by spiking blank plasma, blood, brain homogenate and artificial CSF. […] After 2 min vortex and 5 min centrifugation at 14,000 rpm, supernatant was analyzed by LC/MS/MS (API 4000, Applied Biosystems, Foster City). Two sets of standard curves were run at the beginning and end of each batch from blood sample analysis. For brain and CSF samples, one standard curve was analyzed along with test samples. Total brain levels, expressed as brain/blood ratio (Kp,brain) were measured by AUC(brain)/AUC(blood or plasma) in rodents after oral administration. Similarly, CSF levels represented by a ratio of CSF/blood exposure (Kp,CSF) were determined by AUC(CSF)/AUC(blood or plasma). Free fraction of test compound in biological matrix was determined by in vitro blood and brain binding assay. Kp,uu brain and Kp,uu CSF was calculated by the following equation: Kp,uu brain=AUC(brain)/AUC(blood or plasma)×(fubrain/fublood/plasma) and […] Moreover, the ability of Compounds 6 and 16 to cross BBB was assessed in both rat and monkey by measuring unbound brain-to-plasma partition ratio (Kpuu,brain) and unbound CSF-to-plasma partition ratio (Kpuu,CSF) with the method mentioned above.

[2] = Clinical plasma and CSF PK in HER2+ MBC patients; format: in vivo, human; conditions: human, CSF, oral; patients with BM; read-out: averaged Kpuu,CSF
Procedure: The plasma concentration of Compound 6 at the dosage of 50 to 200 mg following single dose or multiple doses were tested. […] In patients with BM, averaged Kpuu,CSF was around 1.82 and 0.78 for Compound 6 and its active metabolite Compound 16, respectively.

[3] = Blood brain barrier penetration assay in monkeys; format: in vivo; conditions: CSF, oral; Table 5; monkey
Procedure: In vitro blood, plasma and brain binding assay was carried out with equilibrium dialysis device. Diluted blood (1:1 with DPBS pH7.4), EDTA-anticoagulated plasma, and brain homogenate (1:3 with DPBS pH7.4) were spiked with 5 μM test compound (in triplicate) and dialyzed against equal volume of 150 μL 100 mM PBS buffer (pH7.4) at 37° C. for appropriate equilibration time in a slowly rotated plate. At the end of incubation, a 50 μL aliquot from the receiver side and a 5 μL from the donor chamber were taken. The 5 μL sample was further diluted with 45 μL of blank blood, plasma or brain homogenate. […] After centrifuging at 4000 rpm for 20 min, supernatant was diluted with 0.1% formic acid aqueous solution and analyzed for LC/MS/MS (API 4000, Applied Biosystems, Foster City). Unbound fraction (fu) of test compound were calculated by the ratio of the buffer side response to the brain homogenate/plasma/blood side response, and unbound fraction (fu,bl, fu,pl and fu,br) of test compound in non-diluted blood and tissue were calculated from measured fu in homogenate and diluted blood with the following equation: fu,bl (fu,br)=(1/D)/[(1/fu−1)+1/D)]. […]
Total brain levels, expressed as brain/blood ratio (Kp,brain) were measured by AUC(brain)/AUC(blood or plasma) in rodents after oral administration. […]
Kp,uu brain and Kp,uu CSF was calculated by the following equation: […]

pHER2 = molecular target: T3, pHER2 (Homo sapiens, UniProt P04626); test: pHER2 cellular activity in BT474c1 cell line; format: cell-based; conditions: BT474c1 cell line
T3 construct: pHER2 in cells expressing HER2; endogenous in cells; host or cells: BT474c1
T3 sequence (P04626 23-1255): as above
Procedure: A compound's activity of selective inhibition for HER2 wild type amplification can be evaluated with BT474 cell line (ATCC® HTB-20™). The cell line expressed phosphorylated HER2 protein and its proliferation depended on the amplified gene, which could be used for in vitro PD and anti-proliferation assays.
The compounds' inhibition of target modulation were determined as follows: BT474 cells were sorted in 96 well plates (20000 cells/well) with the DMEM medium containing 10% FBS overnight and then treated with tested compounds at a series of concentrations (3 μM, 0.3 μM, 0.1 μM, 0.03 μM, 0.01 μM, 0.003 μM, 0.001 μM, 0.0001 μM). The plates were incubated for 4 h at 37° C. with 5% CO2 and then the HER2 (Y1248) phosphorylation level of cells in each well were measured with MSD Kit (Phospho-ErbB2 (Tyr1248) Assay Whole Cell Lysate Kit: Cat #K151CLD-3). The assay is a electrochemiluminescent method (MESO SCALE DISCOVERY) for determining both phosphorylated and total HER2 of cells with an MSD SECTOR® Imager and then the ratio of p-HER2/total HER2 can be generated by the machine. The percentage of inhibition was got from formula: % inhibition=100×[1−(ratio of sample well−ratio of Min ctrl well)/(ratio of Max−Ratio of Min ctrl well)]. The IC50 values were further calculated as the compounds concentration required for 50% inhibition in best-fit curves using Prism GraphPad 7.0 or Microsoft Xlfit software.

[4] = test system: Human Pgp/BCRP transporter; test: Human Pgp/BCRP transporter substrate assessment; format: in vitro ADME
wild type EGFR = molecular target: T4, wild type EGFR (Homo sapiens, UniProt P00533); test: pEGFR cellular activity in A431 cell line; format: cell-based
T4 construct: which expresses wild type EGFR protein; endogenous in cells; host or cells: A431
T4 sequence (P00533 25-1210): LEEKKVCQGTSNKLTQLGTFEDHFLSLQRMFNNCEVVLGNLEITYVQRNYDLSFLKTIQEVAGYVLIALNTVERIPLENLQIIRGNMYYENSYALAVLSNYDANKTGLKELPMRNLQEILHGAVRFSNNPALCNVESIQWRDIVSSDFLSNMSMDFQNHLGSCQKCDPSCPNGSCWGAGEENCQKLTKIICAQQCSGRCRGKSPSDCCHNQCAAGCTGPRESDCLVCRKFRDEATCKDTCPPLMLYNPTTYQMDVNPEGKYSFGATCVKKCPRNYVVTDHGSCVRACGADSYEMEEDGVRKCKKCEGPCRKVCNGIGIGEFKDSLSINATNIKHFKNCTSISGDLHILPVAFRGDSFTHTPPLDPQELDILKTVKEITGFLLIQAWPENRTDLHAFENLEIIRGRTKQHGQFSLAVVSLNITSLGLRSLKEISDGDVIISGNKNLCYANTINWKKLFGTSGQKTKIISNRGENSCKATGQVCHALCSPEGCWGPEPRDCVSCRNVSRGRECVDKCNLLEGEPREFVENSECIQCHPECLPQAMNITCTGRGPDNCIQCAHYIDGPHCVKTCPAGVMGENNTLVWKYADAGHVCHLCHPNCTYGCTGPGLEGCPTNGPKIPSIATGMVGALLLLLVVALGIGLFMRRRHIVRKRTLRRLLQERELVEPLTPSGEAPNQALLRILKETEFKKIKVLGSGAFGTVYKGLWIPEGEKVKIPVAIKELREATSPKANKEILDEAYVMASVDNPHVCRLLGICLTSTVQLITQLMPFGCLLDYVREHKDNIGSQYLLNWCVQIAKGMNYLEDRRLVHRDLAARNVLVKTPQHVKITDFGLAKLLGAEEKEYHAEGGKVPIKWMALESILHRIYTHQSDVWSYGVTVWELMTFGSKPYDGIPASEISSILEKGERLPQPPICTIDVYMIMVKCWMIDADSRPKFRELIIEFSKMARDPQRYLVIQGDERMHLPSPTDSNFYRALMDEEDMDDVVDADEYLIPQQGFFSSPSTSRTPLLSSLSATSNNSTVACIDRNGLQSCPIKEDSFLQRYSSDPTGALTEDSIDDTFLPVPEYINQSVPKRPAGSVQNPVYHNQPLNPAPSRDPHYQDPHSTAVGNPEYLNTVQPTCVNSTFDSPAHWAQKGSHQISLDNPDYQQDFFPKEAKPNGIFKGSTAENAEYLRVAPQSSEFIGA
Procedure: A compound's activity of inhibition for EGFR WT can be evaluated with NCI-H838 (ATCC® CRL-5844™) and A431 cell line (the epidermoid carcinoma cell line A-431), which expresses wild type EGFR protein as the count screening to define the selectivity of the compound.
The compounds' inhibition of target modulation were determined as follows: NCI-H838 cells and A431 cells were sorted in 96 well plates (20000 cells/well) with the DMEM medium containing 1% FBS overnight and then treated with tested compounds at a series of concentrations (3 μM, 0.3 μM, 0.1 μM, 0.03 μM, 0.01 μM, 0.003 μM, 0.001 μM, 0.0001 μM). The plates were incubated for 4 h at 37° C. with 5% CO2 followed by the stimulation of recombinant hEGF (100 ng/ml for 10 Min, RD, Cat #236-EG) and then the EGFR (Y1068) phosphorylation level of cells in each well were measured with MSD Kit (MULTI-SPOT®96 4-Spot HB Prototype EGFR Triplex […]: pEGFR (Tyr1068), pEGFR (Tyr1173), Total EGFR (Cat #N45ZB-1). The assay is a electrochemiluminescent method (MESO SCALE DISCOVERY) for determining both phosphorylated and total EGFR of cells with an MSD SECTOR® Imager and then the ratio of p-EGFR/total EGFR can be generated by the machine. The percentage of inhibition was used the formula: % inhibition=100×[1−(ratio of sample well−ratio of Min ctrl well)/(ratio of Max−Ratio of Min ctrl well)]. […]

T1 sequence (P00533 25-1210): as above

IC50 (EGFR WT): > 3 µM
IC50 (HER2 WT Amplification): 0.0131 µM
SMILES: Cc1cc(Nc2ncnc3cccc(O[C@@H]4CCN(C)C[C@@H]4F)c23)ccc1Oc1ccn2ccnc2c1 (single isomer, unassigned) [Compound 11]

SMILES: COc1cc(O[C@H]2CCNCC2(F)F)c2c(Nc3ccc(Oc4ccn5ncnc5c4)c(C)c3)ncnc2c1 [Compound 16, (S)-N-(4-([1,2,4]triazolo[1,5-a]pyridin-7-yloxy)-3-methylphenyl)-5-((3,3-difluoropiperidin-4-yl)oxy)-7-methoxyquinazolin-4-amine]
Kp uu ([1]; CSF, read-out: Kp,uu,CSF): 0.23
Kp uu ([1]; brain, read-out: Kp,uu,brain): 0.12
Kp uu [2]: ~0.78
Kp uu [3]: 0.87
IC50 (pHER2): 0.0035 µM
Human Pgp/BCRP transporter substrate [4]: No
IC50 (wild type EGFR): 0.74 µM

Human Pgp/BCRP transporter substrate [4]: Yes
SMILES: CCOc1cc2ncc(C#N)c(Nc3ccc(OCc4ccccn4)c(Cl)c3)c2cc1NC(=O)/C=C/CN(C)C [Neratinib, reference compound]

Kp uu ([1]; brain, read-out: Kp,uu,brain): 0.016
Human Pgp/BCRP transporter substrate [4]: Yes
SMILES: Cc1cc(Nc2ncnc3ccc(NC4=NC(C)(C)CO4)cc23)ccc1Oc1ccn2ncnc2c1 [ONT380, reference compound]

From patent US20220411422A1, “ERBB RECEPTOR INHIBITORS” (Dizal (Jiangsu) Pharmaceutical Co., Ltd., priority 2018, published 2022)
